Assay results: patent US7919624B2, “VR1 vanilloid receptor antagonists with a iononic substructure” (Pharmeste S.R.L., priority 2006, dated 2011)

How the values were obtained:
[1] = target: T1, TRPV1 expressed in rat spinal cord (Rattus norvegicus, UniProt O35433); experiment: Radioligand binding assay, [3H]-RTX, rat spinal cord membranes; details: 37° C. 60 min, range in brackets; for Ki: [3H]RTX 0.4 nM, read-out: Ki value, competition binding of [3H]-RTX
T1 construct: the spinal cord was removed and disrupted using a Polytron tissue homogenizer; from tissue; host or cells: spinal cord membranes of male Sprague-Dawley rats
T1 sequence (O35433 whole entry): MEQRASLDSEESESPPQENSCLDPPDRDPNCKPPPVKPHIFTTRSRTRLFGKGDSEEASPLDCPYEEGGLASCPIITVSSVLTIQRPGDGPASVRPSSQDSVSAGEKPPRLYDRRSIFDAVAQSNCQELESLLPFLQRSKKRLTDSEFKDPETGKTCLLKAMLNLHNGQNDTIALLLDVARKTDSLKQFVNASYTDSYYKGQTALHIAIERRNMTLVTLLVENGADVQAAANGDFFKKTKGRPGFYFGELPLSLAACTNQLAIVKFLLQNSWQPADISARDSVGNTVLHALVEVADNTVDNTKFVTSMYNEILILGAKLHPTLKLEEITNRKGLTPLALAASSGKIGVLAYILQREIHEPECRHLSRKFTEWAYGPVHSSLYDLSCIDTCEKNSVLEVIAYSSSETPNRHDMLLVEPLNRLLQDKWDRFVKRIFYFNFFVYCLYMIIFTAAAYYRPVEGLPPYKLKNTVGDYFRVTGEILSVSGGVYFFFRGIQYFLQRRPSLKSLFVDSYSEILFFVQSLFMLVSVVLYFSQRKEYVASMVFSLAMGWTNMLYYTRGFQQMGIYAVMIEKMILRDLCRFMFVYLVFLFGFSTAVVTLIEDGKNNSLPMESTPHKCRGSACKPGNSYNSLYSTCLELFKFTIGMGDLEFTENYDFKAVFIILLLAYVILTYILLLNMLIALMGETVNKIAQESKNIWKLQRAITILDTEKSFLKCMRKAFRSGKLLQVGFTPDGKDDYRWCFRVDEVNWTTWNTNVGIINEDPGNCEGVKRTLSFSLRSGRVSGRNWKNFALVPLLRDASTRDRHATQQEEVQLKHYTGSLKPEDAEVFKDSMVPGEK
Description: Radioligand Binding Assay
Male Sprague-Dawley rats with body weight between 250 and 350 g at the time for testing were used. For binding assays rats were sacrificed by decapitation under anesthesia and the spinal cord was removed and disrupted using a Polytron tissue homogenizer in ice cold buffer containing 5 mM KCl, 5.8 mM NaCl, 0.75 mM CaCl2, 2 mM MgCl2, 320 mM sucrose, 10 mM Hepes, pH 8.6.^5 The homogenized tissue was centrifuged at 1000×g for 10 min at 4° C. and the supernatant was centrifuged again at 35000×g for 30 min at 4° C. (Beckman Avanti J25). The pellet was resuspended in the same buffer described above and used in binding experiments. In saturation experiments, 150 μg protein/sample from membrane suspensions were incubated with [^3H]-resiniferatoxin ([^3H]-RTX) (0.003-3 nM) in the assay buffer containing 0.25 mg/ml fatty acid-free bovine serum albumin at 37° C. for 60 min. In competition experiments, the membranes were incubated at 37° C. for 60 min with [^3H]RTX (0.4 nM) and increasing concentrations of the examined compounds in the range from 0.1 nM to 3 μM. Non-specific binding was defined in the presence of 1 μM RTX. After incubation, the reaction mixture was cooled at 0° C. and incubated with bovine α1-acid glycoprotein (200 μg per tube) for 15 min to reduce non-specific RTX binding. Membrane-bound RTX was separated from free RTX through centrifugation of the samples at 18500×g for 15 min. The tip of the microcentrifuge tube containing the pellet was cut off and radioactivity was determined by scintillation counting (Packard 2500 TR). Protein concentration was determined according to a Bio-Rad method with bovine serum albumin as reference standard (Bradford, 1976). Saturation and competition studies were analysed with the program Ligand.^6

[2] = tested on: capsaicin-induced tactile allodynia; experiment: Capsaicin-induced secondary allodynia in rat; type: in vivo; details: 10 mg/kg orally 2 hours prior to capsaicin (20 nmols/50 μl/paw), 90 min after capsaicin challenge
Description: Capsaicin-induced Secondary Allodynia in Rat
Capsaicin (20 nmols/50 μl/paw) was injected in the plantar surface of the glabrous skin of the right paw of rats anesthetized with diethyl ether (Chaplan et al., 1994). Compound Id was orally administered (10 mg/kg) 2 hours prior to capsaicin injection. Tactile allodynia was evaluated 90 min after capsaicin challenge.

[3] = target: T2, TRPV1 expressing neurons (rat trigeminal neurons) (Rattus norvegicus, UniProt O35433); experiment: Ca2+ fluorescence measurements in cultured rat trigeminal ganglia; type: cell-based; details: 0.1 μM capsaicin, mean and 95% fiducial limits, read-out: IC50 inhibiting capsaicin-evoked [Ca2+]i mobilization
T2 construct: Two-days old Newborn rats were terminally anaesthetized and decapitated; Trigeminal ganglia were removed; endogenous in cells; host or cells: primary cultured trigeminal ganglion neurons from newborn Sprague-Dawley rats
T2 sequence (O35433 whole entry): as above
Description: Ca^2+ Fluorescence Measurements in Cultured rat Trigeminal Ganglia
Two-days old Newborn rats were terminally anaesthetized and decapitated. Trigeminal ganglia were removed and rapidly placed in a cold phosphate buffered solution (PBS) before being transferred to collagenase/dispase (1 mg/ml dissolved in Ca^2+- Mg^2+-free PBS) for 35 min at 37° C.^7 After the enzymatic treatment the ganglia were rinsed three times with Ca^2+- Mg^2+-free PBS and then placed in 2 ml of cold DMEM supplemented with 10% fetal bovine serum (FBS, heat inactivated), 2 mM L-glutamine, 100 μ/ml penicillin and 100 μg/ml streptomycin. The ganglia were dissociated into single cells by several passages through a series of syringe needles (23G down to 25G). Finally, the medium and the ganglia cells were sieved through a 40 μm filter to remove debris and topped up with 8 ml of DMEM medium and centrifuged (200×g for 5 min). The final cell pellet was re-suspended in DMEM medium [supplemented with 100 ng/ml mouse Nerve Growth Factor (mouse-NGF-7S) and cytosine-β-D-arabinofuranoside free base (ARA-C) 2.5 μM]. Cells were plated on poly-L-lysine-(8.3 μM) and laminin-(5 μM) coated 25 mm glass cover slips and kept for 5 to 8 days at 37° C. in a humidified incubator gassed with 5% CO2 and air. Plated neurons were loaded with Fura-2-AM-ester (3 μM) in Ca^2+ buffer solution of the following composition (mM): CaCl2 1.4, KCl 5.4, MgSO4 0.4, NaCl 135, D-glucose 5, HEPES 10 with BSA (0.1%), at pH 7.4, for 40 min at 37° C. The plated neurons were then washed twice with the Ca^2+ buffer solution and transferred to a chamber on the stage of Nikon eclipse TE300 microscope. Fura-2-AM-ester was excited at […] to indicate relative [Ca^2+]i changes by the F340/F380 ratio recorded with a dynamic image analysis system (Laboratory Automation 2.0, RCS, Florence, Italy). After transferring the plated neurons to the chamber, they were allowed (at least 10 min) to attain a stable fluorescence before beginning the experiment. A calibration curve was performed using buffer containing Fura-2-AM-ester and determinant concentrations of free Ca^2+.
The results are expressed as mean and 95% fiducial limits.

| Ki [1] | IC50 [3] | SMILES | preventive effect against the pro-allodinic effect of capsaicin [2] | Kd ([1]; [3H]-RTX 0.003-3 nM, read-out: KD value, saturation curve of [3H]-RTX) |
| --- | --- | --- | --- | --- |
| 27 nM | 18.2 nM | CC1=C(/C=C/C(=O)Nc2cccc3cnccc23)C(C)(C)CCC1Oc1ccc(Cl)cc1 (stereo not shown) [Compound Id, (2E)-3-(3-(4-chlorophenoxy)-2,6,6-trimethylcyclohex-1-enyl)-N-(isoquinolin-5-yl)acrylamide] | 54% |  |
| 66 nM | 44 nM | CC1=C(/C=C/C(=O)Nc2cccc3cnccc23)C(C)(C)CCC1 [Ia, (2E)-N-(isoquinolin-5-yl)-3-(2,6,6-trimethylcyclohex-1-enyl)acrylamide] |  |  |
| 26.2 nM | 28.4 nM | COC1CCC(C)(C)C(/C=C/C(=O)Nc2cccc3cnccc23)=C1C (stereo not shown) [Ib, (2E)-N-(isoquinolin-5-yl)-3-(3-methoxy-2,6,6-trimethylcyclohex-1-enyl)acrylamide] |  |  |
| 4.93 nM | 2.12 nM | CC1=C(/C=C/C(=O)Nc2cccc3cnccc23)C(C)(C)CCC1Oc1ccccc1 (stereo not shown) [Ic, (2E)-N-(isoquinolin-5-yl)-3-(2,6,6-trimethyl-3-phenoxycyclohex-1-enyl)acrylamide] |  |  |
| 14.8 nM | 5.25 nM | CC1=C(/C=C/C(=O)Nc2cccc3cnccc23)C(C)(C)CCC1Oc1ccc(F)cc1 (stereo not shown) [Ie, (2E)-3-(3-(4-fluorophenoxy)-2,6,6-trimethylcyclohex-1-enyl)-N-(isoquinolin-5-yl)acrylamide] |  |  |
| 8.14 nM | 0.38 nM | CC1=C(/C=C/C(=O)Nc2cccc3cnccc23)C(C)(C)CCC1Oc1cccc(F)c1 (stereo not shown) [If, (2E)-3-(3-(3-fluorophenoxy)-2,6,6-trimethylcyclohex-1-enyl)-N-(isoquinolin-5-yl)acrylamide] |  |  |
| 10.3 nM | 0.65 nM | CC1=C(/C=C/C(=O)Nc2cccc3cnccc23)C(C)(C)CCC1Oc1ccc(F)c(F)c1 (stereo not shown) [Ig, (2E)-3-(3-(3,4-difluorophenoxy)-2,6,6-trimethylcyclohex-1-enyl)-N-(isoquinolin-5-yl)acrylamide] |  |  |
|  |  | C=C(C)[C@]12C[C@@H](C)[C@@]34O[C@](Cc5ccccc5)(O[C@@H]1[C@@H]3C=C(COC(=O)Cc1ccc(O)c(OC)c1)C[C@]1(O)C(=O)C(C)=C[C@@H]41)O2 [[^3H]-RTX, [^3H]-resiniferatoxin, reference compound] |  | 0.21 nM |
